Here are results for four compounds from patent US11859087B2, “Fluorescent dye, preparation method therefor, and application thereof” (SUZHOU BAIYUAN GENT CO., LTD., priority 2018, dated 2024).

Data set [1] in a line: Determination of the absorption spectrum of fluorescent dyes. Type of data set: physicochemical. The conditions noted are these: 1.0×10^−5 mol/L in 50% by volume of ethanol. From the text: The compounds prepared in Example 1 and Examples 4-6 were accurately weighed to prepare a solution having a concentration of 1.0×10^−5 mol/L using 50% by volume of ethanol. In FIG. 2, 1 represents the intermediate prepared in Example 1, and 2-4 represent the compound prepared in Examples 4-6, respectively.

A short description of data set [2]: Determination of the fluorescence spectrum of fluorescent dyes. Type of data set: physicochemical. The conditions noted are these: for λem (max/nm): ethanol and water (50:50, v/v), 1.0×10^−6 mol/L, excitation at maximum absorption wavelength. The protocol: The fluorescence spectrum was measured using the maximum absorption wavelength in the measured near-infrared spectrum as the excitation wavelength of the fluorescence spectrum. The compounds prepared in Example 1 and Examples 4-6 were accurately weighed to prepare a solution of ethanol and water (50:50, v/v) at a concentration of 1.0×10^−6 mol/L. The emission spectrum of the solution was measured, and the result was shown in FIG. 1. In FIG. 1, 1 represents the intermediate prepared in Example 1, and 2-4 represent the compounds prepared in Examples 4-6, respectively.

Data set [3] in a line: Determination of molar extinction coefficient by UV-visible absorption spectroscopy. The conditions noted are these: A=εcl. Type of data set: physicochemical. The protocol: The molar extinction coefficient of the compound was determined by UV-visible absorption spectroscopy. The formula for calculating molar extinction coefficient is as shown in equation (1): A=εcl Equation (1), wherein A represents ultraviolet absorption value, ε represents molar extinction coefficient, c represents concentration of the compound, and l represents thickness of the quartz cell for detection.

The nature of data set [4]: Determination of fluorescence quantum yield of fluorescent dyes. Type of data set: physicochemical. The conditions noted are these: 20° C., absolute ethanol, quinine sulfate as reference. The protocol: The fluorescence quantum yield of the fluorescent dyes was determined at 20° C., and quinine sulfate (Solvent: 0.1M H2SO4, Quantum yield: 0.56) was used as a reference compound, then the fluorescence quantum yield was calculated by measuring fluorescence integral intensities obtained from the dilute solutions of the fluorescent dyes and the reference compound under the same excitation conditions and the ultraviolet absorption value at this excitation wavelength. The product was dissolved in absolute ethanol.
The formula for calculating fluorescence quantum yield is as shown in equation (2):
[formula] wherein Φ represents quantum yield of the compound to be measured, the subscript R represents reference compound, I represents fluorescence integral intensity, A represents ultraviolet absorption value, and η represents solvent refractive index. Generally, the ultraviolet absorption values A and AR are less than 0.1.

The conditions of data set [5]: reference compound, solvent 0.1M H2SO4; cited from earlier work.

Molecules are shown by their SMILES. Structures can show the parent of a compound that is named as a salt.

Take `CC1(C)C(/C=C/C2=C(NCC(=O)O)C(=C/C=C3/N(/C=C/Br)c4ccccc4C3(C)C)/CCC2)=[N+](/C=C/Br)c2ccccc21` [Example 4]: in data set [1], the “λabs (max/nm)” value worked out at 785 nm. Moreover, in data set [2], the “Stokes shift (nm)” value is listed as 38 nm and the “λem (max/nm)” value was 815 nm. The “ε × 10^4 (M^−1 cm^−1)” value in data set [3] is listed as 8.5 × 10^4 M^−1 cm^−1. Further, in data set [4], the “Φ (%)” value stood at 84.99%.
For `CC1(C)C(/C=C/C2=C(NCc3cccc(C(=O)O)c3)C(=C/C=C3/N(/C=C/Br)c4ccccc4C3(C)C)/CCC2)=[N+](/C=C/Br)c2ccccc21` [Example 6], the “λabs (max/nm)” value in data set [1] is 790 nm. In data set [2], the “Stokes shift (nm)” value is 34 nm and the “λem (max/nm)” value came to 829 nm. In addition, in data set [3], the “ε × 10^4 (M^−1 cm^−1)” value is 9.0 × 10^4 M^−1 cm^−1. The “Φ (%)” value in data set [4] is listed as 89.86%.
As to `C=C[C@H]1C[N@@]2CC[C@H]1C[C@H]2[C@H](O)c1ccnc2ccc(OC)cc12` [quinine sulfate], the Quantum yield in data set [5] is given as 0.56.
Turning to `CC1(C)C(/C=C/C2=C(NCO)C(=C/C=C3/N(/C=C/Br)c4ccccc4C3(C)C)/CCC2)=[N+](/C=C/Br)c2ccccc21` [Example 5], the “λabs (max/nm)” value in data set [1] is 787 nm. For the same compound, in data set [2], the “Stokes shift (nm)” value amounted to 40 nm and the “λem (max/nm)” value is on record as 820 nm. The “ε × 10^4 (M^−1 cm^−1)” value in data set [3] is 8.6 × 10^4 M^−1 cm^−1. Besides, the “Φ (%)” value in data set [4] was determined as 86.00%.
